# Measured values taken from paper PMC7897990, “TriTOX: A novel Trichomonas vaginalis assay platform for high-throughput screening of compound libraries” (International Journal for Parasitology: Drugs and Drug …, 2021).
# Read-outs that look alike come from different tables or passages of the source. Starred links: 1 amine or outer side, 2 acyl side, 3 side chain; linkers in the order of their positions; H or OH if unused. Positions of bridges follow the written chain, without caps; N, C: chain ends. Non-standard residues stand in square brackets, D forms with d. Residues, ends and D or L forms follow the SMILES beside them. ξ: configuration not given here. *: point of attachment. hTyr(3S-OH,4S-OH,3'-OSO3H) = N[C@H](C(=O)O)[C@H](O)[C@@H](O)c1ccc(O)c(OS(=O)(=O)O)c1; pTerphenylCO(4''-OnC5H11) = CCCCCOc1ccc(-c2ccc(-c3ccc(C(=O)*)cc3)cc2)cc1; Orn(4R-OH,5R-OH) = O=C([C@H](C[C@@H](O)[C@@H](O)N[*:3])N[*:1])[*:2]; ξOrn(4,5-diOH) = O=C(C(CC(O)C(O)N[*:3])N[*:1])[*:2]; ξhTyr(βξ-OH,γξ-OH) = NC(C(=O)O)C(O)C(O)c1ccc(O)cc1; Pro(3S-OH,4S-Me) = C[C@H]1CN[C@H](C(=O)O)[C@H]1O; Gln(3R-OH) = NC(=O)C[C@@H](O)[C@H](N)C(=O)O; ξPro(3ξ-OH,4ξ-Me) = CC1CNC(C(=O)O)C1O; Palmitoyl = CCCCCCCCCCCCCCCC(=O)*; Hyp = O=C(O)[CH]1C[CH](O)CN1
# What was measured:
# [1] = tested on: Trichomonas vaginalis G3 trophozoites; settings: for T.vaginalis_Absorbance_Rep1: replicate 1, raw absorbance; for T.vaginalis_Absorbance_Rep2: replicate 2, raw absorbance
# [2] = tested on: nontumorigenic neonatal foreskin fibroblast (NFF) cell line
# [3] = HTS, parasite screen at 1 µg/mL, replicate 1
# [4] = HTS, parasite screen at 1 µg/mL, replicate 2
# [5] = NFF fibroblast screen at 5 µg/mL, A = active, I = inactive
# [6] = HTS single concentration, parasite screen 1 µg/mL, replicate 1
# [7] = HTS single concentration, parasite screen 1 µg/mL, replicate 2
# [8] = NFF_NS1 screen 5 µg/mL, single concentration
# [9] = HTS, parasite screen at 1 µg/mL
# [10] = HTS replicate 1, parasite screen 1 µg/mL
# [11] = HTS replicate 2, parasite screen 1 µg/mL
# [12] = NFF fibroblasts, single concentration 5 µg/mL
# [13] = replicate 1, parasite screen at 1 µg/mL
# [14] = replicate 2, parasite screen at 1 µg/mL
compound,measurement,setting,value
CC[C@H]1C[C@@H]2CC[C@@H](O2)[C@@H](C)C(=O)O[C@H](CC)C[C@H]2CC[C@H](O2)[C@H](C)C(=O)O[C@@H](C)C[C@@H]2CC[C@@H](O2)[C@@H](C)C(=O)O[C@H](CC)C[C@H]2CC[C@H](O2)[C@H](C)C(=O)O1 [Trinactin],T.vaginalis_%inb_Rep1,[1]; [3],11.27%
same,T.vaginalis_%inb_Rep2,[1]; [4],13.47%
same,NFF_Activity,[2]; [5],I (otherwise these were reported as inactive (I))
COC1=C(N)C(=O)c2nc(-c3nc(C(=O)O)c(C)c(-c4cccc(OC)c4O)c3N)ccc2C1=O [BIA-S1088],T.vaginalis_%inb_Rep1,[1]; [6],77.76%
same,T.vaginalis_%inb_Rep2,[1]; [7],92.91%
same,NFF_Activity,[2]; [8],A (active (A) compounds having >25% inhibitory activity)
CC[C@H]1OC(=O)[C@H](C)[C@@H](O[C@H]2C[C@@](C)(OC)[C@@H](O)[C@H](C)O2)[C@H](C)[C@@H](O[C@@H]2O[C@H](C)C[C@H](N(C)C)[C@H]2O)[C@](C)(O)C[C@@H](C)C(=O)[C@H](C)[C@@H](O)[C@]1(C)O [Erythromycin A],T.vaginalis_%inb_Rep1,[1]; [3],5.27%
same,T.vaginalis_Absorbance_Rep1,[1]; [9],0.806
same,T.vaginalis_%inb_Rep2,[1]; [4],3.78%
same,T.vaginalis_Absorbance_Rep2,[1]; [9],0.694
same,NFF_Activity,[2]; NFF_NS1 screen at 5 µg/mL,I (otherwise these were reported as inactive (I))
CC[C@H]1/C=C/C=C/C[C@@H](C)[C@H](O)[C@@](C)(O)C(=O)[C@@H](C)[C@H](O)[C@@H](C)C(=O)[C@@H](C)[C@H](O)[C@@H](C)/C=C/C(=O)O[C@H]2C[C@@]3(CC[C@H](C)[C@H](C[C@@H](C)O)O3)O[C@@H](CC1)[C@H]2C [Oligomycin D],T.vaginalis_%inb_Rep1,[1]; [10],14.35%
same,T.vaginalis_%inb_Rep2,[1]; [11],12.89%
same,NFF_Activity,[2],I (key: active (A) compounds having >25% inhibitory activity; otherwise these were reported as inactive (I))
C[C@@H]1CC[C@H](O)/C=C/C(=O)O[C@H](C)CC[C@H](O)/C=C/C(=O)O1 [Pyrenophorol],T.vaginalis_%inb_Rep1,[1]; [10],10.44%
same,T.vaginalis_%inb_Rep2,[1]; [11],11.15%
same,NFF_Activity,[2]; [12],I (otherwise these were reported as inactive (I))
CC1=CC2C(O)CCCC2C(C)(C(O)=C2C(=O)CNC2=O)C1CCC(C)C(O)/C(C)=C/CC(O)/C=C/C(C)C(O)/C=C/CC(O)/C=C/CC(O)CC1CCCN1C(=N)N (stereo not shown) [TPU-0037C],T.vaginalis_%inb_Rep1,[1]; [3],9.28%
same,T.vaginalis_%inb_Rep2,[1]; [4],14.69%
same,NFF_Activity,[2]; [5],I (otherwise these were reported as inactive (I))
"CCCCCOc1ccc(-c2ccc(-c3ccc(C(=O)NC4CC(O)C(O)NC(=O)C5C(O)C(C)CN5C(=O)C(C(C)O)NC(=O)C(C(O)C(O)c5ccc(O)cc5)NC(=O)C5CC(O)CN5C(=O)C(C(C)O)NC4=O)cc3)cc2)cc1 (stereo not drawn) [BIA-A1423] ({pTerphenylCO(4''-OnC5H11)}-[ξOrn(4,5-diOH)]T[Hyp][ξhTyr(βξ-OH,γξ-OH)]T[ξPro(3ξ-OH,4ξ-Me)]; lactam 1-C; configuration not given here)",T.vaginalis_%inb_Rep1,[1]; [6],14.75%
same,T.vaginalis_%inb_Rep2,[1]; [7],12.08%
same,NFF_Activity,[2]; [8],I (otherwise these were reported as inactive (I))
CC(=O)O[C@@H]1C[C@]2(C)[C@@]3(CO)[C@H](O)C(=O)C(C)=C[C@H]3O[C@H]1[C@@]21CO1 [BIA-A1925],T.vaginalis_%inb_Rep1,[1]; [6],9.96%
same,T.vaginalis_%inb_Rep2,[1]; [7],14.14%
same,NFF_Activity,[2]; [8],I (otherwise these were reported as inactive (I))
"CCCCCCCCCCCCCCCC(=O)N[C@H]1C[C@@H](O)[C@@H](O)NC(=O)[C@@H]2[C@@H](O)[C@@H](C)CN2C(=O)[C@H]([C@H](O)CC(N)=O)NC(=O)[C@H]([C@H](O)[C@@H](O)c2ccc(O)c(OS(=O)(=O)O)c2)NC(=O)[C@@H]2C[C@@H](O)CN2C(=O)[C@H]([C@@H](C)O)NC1=O [FR 901379] (Palmitoyl-[Orn(4R-OH,5R-OH)]T[Hyp][hTyr(3S-OH,4S-OH,3'-OSO3H)][Gln(3R-OH)][Pro(3S-OH,4S-Me)]; lactam 1-C)",T.vaginalis_%inb_Rep1,[1]; [3],12.55%
same,T.vaginalis_Absorbance_Rep1,[1]; [9],0.942
same,T.vaginalis_%inb_Rep2,[1]; [4],13.45%
same,T.vaginalis_Absorbance_Rep2,[1]; [9],0.806
same,NFF_Activity,[2]; NFF_NS1 screen at 5 µg/mL,I (otherwise these were reported as inactive (I))
CN(C)[C@@H]1C(=O)C(C(N)=O)=C(O)[C@@]2(O)C(=O)C3=C(O)c4c(O)cccc4C[C@H]3C[C@@H]12.Cl [BIA-S1534],T.vaginalis_%inb_Rep1,"[1]; parasite screen at 1 µg/mL, replicate 1",5.02%
same,T.vaginalis_%inb_Rep2,"[1]; parasite screen at 1 µg/mL, replicate 2",3.66%
same,NFF_Activity,"[2]; NFF_NS1 screen at 5 µg/mL, NFF cells",I (otherwise these were reported as inactive (I))
C=CC(C)(C)C12CC3C(=O)Nc4ccccc4C(=O)N3C1N(C(C)=O)c1ccccc12 (stereo not shown) [BIA-A1687],T.vaginalis_%inb_Rep1,[1]; [6],18.36%
same,T.vaginalis_%inb_Rep2,[1]; [7],16.20%
same,NFF_Activity,[2]; [8],I (otherwise these were reported as inactive (I))
C[C@H]1NC(=O)[C@@H]2CCCCN2C(=O)CN(C)C(=O)CNC(=O)[C@@H]2CCCCN2C(=O)[C@H](NC(=O)c2nc3ccccc3cc2O)[C@@H](C)NC(=O)[C@@H]2CCCCN2C(=O)CN(C)C(=O)CNC(=O)[C@@H]2CCCCN2C(=O)[C@@H]1NC(=O)c1nc2ccccc2cc1O [Quinaldopeptin],T.vaginalis_%inb_Rep1,[1]; [10],92.82%
same,T.vaginalis_%inb_Rep2,[1]; [11],95.37%
same,NFF_Activity,[2]; [12],I (otherwise these were reported as inactive (I))
CCCCCC(=O)N[C@H]1CCOC1=O [BIA-H1495],T.vaginalis_%inb_Rep1,[1]; [13],10.40%
same,T.vaginalis_%inb_Rep2,[1]; [14],12.70%
same,NFF_Activity,"[2]; NFF cells, screen at 5 µg/mL",I (otherwise these were reported as inactive (I))
COC(=O)C1=CO[C@@H](C)[C@@H]2CN3CCc4c([nH]c5cc(OC)c(OC)cc45)[C@@H]3C[C@H]12 [BIA-I1957],T.vaginalis_%inb_Rep1,[1]; [13],9.33%
same,T.vaginalis_%inb_Rep2,[1]; [14],14.44%
same,NFF_Activity,"[2]; NFF cells, screen at 5 µg/mL",I (otherwise these were reported as inactive (I))
COc1cc(C)c2c(OC)cc(=O)oc2c1-c1c(OC)cc(C)c2c(OC)cc(=O)oc12 [BIA-K1634],T.vaginalis_%inb_Rep1,[1]; [13],14.30%
same,T.vaginalis_%inb_Rep2,[1]; [14],13.02%
same,NFF_Activity,"[2]; NFF cells, screen at 5 µg/mL",I (otherwise these were reported as inactive (I))
